The values below come from ChEMBL document CHEMBL1201862, “PubChem BioAssay data set” (2004).

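Interpolation was linear, between the two tested concentrations surrounding the appropriate level; five concentrations were tested over 48 hours in 96-well plates. The concentration for 50% growth inhibition is given as GI50.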 Calls of active or inactive are those of the source. No stated cut-off is given here; in the data, active = GI50 up to about 1.1 µM and inactive = higher.

What all share (experiment): growth of human tumour cells (NCI), 48 h
In assay [1] the test system is HL-60.
Assay [2] relates to KM12.
Assay [3] deals with OVCAR-8.
Assay [4] deals with OVCAR-3.
Assay [5] relates to SK-MEL-28.
The test system of assay [6] is HCT-15.
For assay [7], the system named is HCC 2998.
Assay [8] deals with OVCAR-5.
Assay [9] has as its system NCI-H23.
Assay [10] deals with SF-539.
In assay [11] the test system is HT-29.
The test system of assay [12] is COLO 205.
Assay [13] concerns UO-31.
The test system of assay [14] is U-251.
For assay [15], the system named is SF-268.
In assay [16] the test system is SK-OV-3.
The test system of assay [17] is SNB-19.
Assay [18] concerns SW-620.
Assay [19] relates to ACHN.

Turning to `COc1ccc2c(c1)CCCc1cn[nH]c1-2`, the GI50 in [1] is > 100 µM (inactive); in assay [2] it was > 100 µM (inactive); in assay [3], > 100 µM (inactive); in assay [4] it was > 100 µM (inactive); in [5], > 100 µM (inactive); in [6], above 100 µM. The GI50 in [7], in assay [8], in assay [9], in assay [10], in assay [11] and in [12] was > 100 µM (inactive) each time. Also, the GI50 in [13], in assay [14], in assay [15], in assay [16], in [17] and in [18] was > 100 µM (inactive) each time.

On to `CCNC(=O)N(CC)CN(CC)C(=O)NCC`, for which the GI50 in assay [1] is > 100 µM (inactive); in assay [2] it was > 100 µM (inactive); in assay [3], > 100 µM (inactive); in assay [4] it was > 100 µM (inactive); in assay [5], > 100 µM (inactive); in assay [6], above 100 µM. Moreover, the GI50 in assay [7], in assay [8], in assay [10], in assay [11], in [12] and in assay [13] was > 100 µM (inactive) each time. The GI50 in assay [19], in assay [15], in assay [16], in [17] and in assay [18] was > 100 µM (inactive) each time.

Consider `O=C1C2=C(C3=NCCc4c[nH]c1c43)C1(C=C(Br)C(O)C(Br)=C1)CCN2` (stereo unspecified), for which the GI50 in assay [1] was 0.558 µM (active); in assay [2] it was 1.82 µM (inactive); in assay [3] it was 0.647 µM (active); in assay [4], 1.03 µM (active); in assay [5] it was 7.69 µM (inactive); in assay [6], 1.16 µM. Moreover, the GI50 in assay [7] was 1.18 µM (inactive); in assay [8], 2.65 µM (inactive); in assay [9], 0.792 µM (active); in [10], 2.05 µM (inactive); in assay [11], 0.312 µM (active); in assay [12] it was 0.115 µM (active). For the same compound, the GI50 in [13] is 11.1 µM (inactive); in assay [14], 2.26 µM (inactive); in [15], 0.966 µM (active); in assay [16] it was 13.3 µM (inactive); in [17], 11.1 µM (inactive); in [18], 0.541 µM (active).

Regarding `CC(C)C1OC(=O)/C=C/C=C/C=C/C=C/C=C/CC(O)C(C)C(O)CC(O)CC(O)CC(O)CC(O)CC(O)CC(O)/C=C/C1C` (stereo unspecified), the GI50 in assay [1] was > 100 µM (inactive); in assay [2], > 100 µM (inactive); in [3], > 100 µM (inactive); in assay [4], > 100 µM (inactive); in [5], > 100 µM (inactive); in [6], above 100 µM. Moreover, the GI50 in assay [7], in [8], in assay [9], in assay [10], in assay [11] and in assay [13] was > 100 µM (inactive) throughout. The GI50 in [19], in assay [14], in [15], in assay [16], in assay [17] and in assay [18] was > 100 µM (inactive) in each case.

For the compound `CNC(=O)SCC(NC(=O)CCC(N)C(=O)O)C(=O)NCC(=O)O` (stereo unspecified), the GI50 in assay [1] was > 31.6 µM (inactive); in assay [2] it was > 100 µM (inactive); in assay [3] it was > 100 µM (inactive); in assay [4], > 100 µM (inactive); in assay [5], > 100 µM (inactive); in [6] it was above 78 µM. Also, the GI50 was > 100 µM (inactive) in assay [7]; > 100 µM (inactive) in assay [8]; > 100 µM (inactive) in [9]; > 96.4 µM (inactive) in assay [10]; > 84.5 µM (inactive) in assay [11]; 51.2 µM (inactive) in assay [12]. Moreover, the GI50 is > 100 µM (inactive) in assay [13]; > 86.7 µM (inactive) in assay [14]; > 80.4 µM (inactive) in [15]; > 100 µM (inactive) in [16]; > 100 µM (inactive) in assay [17]; > 100 µM (inactive) in [18].

Regarding `CC(C)=CCc1c(C)cc2cc3c(c(O)c2c1O)C(=O)C=C(O)C3(CC=C(C)C)C/C=C(\C)CO` (stereo unspecified), the GI50 in [1] is 19.4 µM (inactive); in [2] it was 41.9 µM (inactive); in assay [3], 28.8 µM (inactive); in assay [4] it was 36.9 µM (inactive); in [5] it was 46.2 µM (inactive); in assay [6], 28 µM. Also, the GI50 in assay [7] was 45.2 µM (inactive); in assay [8], 48.2 µM (inactive); in assay [9] it was 37.4 µM (inactive); in assay [10], 39.1 µM (inactive); in assay [11], 37.2 µM (inactive); in assay [12], 40.5 µM (inactive). The GI50 is 29 µM (inactive) in assay [13]; 29.6 µM (inactive) in assay [14]; 36.7 µM (inactive) in assay [15]; 36.7 µM (inactive) in assay [16]; 39.8 µM (inactive) in assay [17]; 39.8 µM (inactive) in [18].

For `CC1(C)CCCCCC(C)(CCCO)C1=O` (stereo unspecified), the GI50 was > 100 µM (inactive) in assay [1]; > 100 µM (inactive) in [2]; > 100 µM (inactive) in assay [3]; > 100 µM (inactive) in assay [4]; > 100 µM (inactive) in assay [5]; above 100 µM in assay [6]. Moreover, the GI50 in assay [7], in [8], in assay [9], in [11], in assay [12] and in [13] was > 100 µM (inactive) in each case. Besides, the GI50 in [19], in [14], in assay [15], in [16], in [17] and in assay [18] was > 100 µM (inactive) in each case.

As for `FC(F)(F)C1=NC(=NNc2nnc(-c3ccccc3)c(-c3ccccc3)n2)N=C(C(F)(F)F)C1`, the GI50 in assay [1] was 5.22 µM (inactive); in assay [2] it was 33.2 µM (inactive); in assay [3] it was 25.8 µM (inactive); in assay [4], > 30.7 µM (inactive); in assay [5], 35.8 µM (inactive); in assay [6] it was 11 µM. The GI50 in assay [7] was 9.12 µM (inactive); in assay [8], 30.2 µM (inactive); in [9], 19.5 µM (inactive); in [10], 32.9 µM (inactive); in [11] it was 16.6 µM (inactive); in assay [12] it was 6.08 µM (inactive). In addition, the GI50 is 4.11 µM (inactive) in [13]; > 29 µM (inactive) in assay [14]; 12.8 µM (inactive) in assay [15]; 60.4 µM (inactive) in assay [16]; 35 µM (inactive) in assay [17]; 27.3 µM (inactive) in [18].

`ICC1CCCO1` (stereo unspecified): the GI50 was > 100 µM (inactive) in [1]; > 100 µM (inactive) in [2]; > 100 µM (inactive) in assay [3]; > 100 µM (inactive) in [5]; above 100 µM in assay [6]; > 100 µM (inactive) in assay [7]. In addition, the GI50 in assay [8], in [9], in assay [10], in assay [11], in [12] and in assay [19] was > 100 µM (inactive) throughout. Also, the GI50 in assay [14], in assay [15], in [17] and in assay [18] was > 100 µM (inactive) each time.

In the case of `CC(C)(C)[C@H]1CO[C@]2(C)[C@@H]3C[C@@H]3C(=O)N12`, the GI50 in assay [1] was > 100 µM (inactive); in assay [2], > 100 µM (inactive); in assay [3], > 100 µM (inactive); in assay [4], > 100 µM (inactive); in assay [5], > 100 µM (inactive); in [6], above 100 µM. Besides, the GI50 in [7], in assay [8], in [9], in assay [10], in [11] and in [12] was > 100 µM (inactive) in each case. Further, the GI50 in assay [13], in [19], in [14], in assay [15], in assay [16] and in [17] was > 100 µM (inactive) throughout. Besides, the GI50 in assay [18] is > 100 µM (inactive).

Turning to `O=S1(=O)C[C@H](O)[C@H](O)CS1`, the GI50 in [1], in assay [2], in assay [3], in assay [4], in assay [5] and in assay [7] was > 100 µM (inactive) each time. Moreover, the GI50 in assay [8], in assay [9], in assay [10], in assay [11], in assay [12] and in [13] was > 100 µM (inactive) throughout. For the same compound, the GI50 in [19], in assay [14], in assay [15], in assay [16], in assay [17] and in assay [18] was > 100 µM (inactive) each time.
